Data set [1] in a line: Stability of the free base. It is filed as physicochemical. The settings on record: free base form, viscous oil.
The target of another data set is α4β2 nicotinic subtype (Homo sapiens, UniProt P17787+P43681). Particulars: α4β2 over α7, ganglionic and muscle subtypes; background statement, no test described; cited from earlier work.
Data set [2] is described as follows: Water solubility of the free base. It is filed as physicochemical. Particulars: free base form, viscous oil. The method, then: Aqueous solubility was determined by suspending sufficient compound in water to give a maximum final concentration of ≥10 mg/mL of the parent free-form of the compound. The suspension was equilibrated at 25° C. for 24 h, and then the pH was measured. The suspension was then filtered through a glass fiber C filter into a 96 well plate. The filtrate was then diluted by a factor of 101. Quantitation was by HPLC with reference to a standard solution of approximately 0.1 mg/mL in DMSO. Different volumes of the standard, diluted and undiluted sample solutions were injected. The solubility was calculated using the peak areas determined by integration of the peak found at the same retention time as the principal peak in the standard injection. If there was sufficient solid in the filter plate, the XRPD was collected.

The structures appear in SMILES notation.

Chain of α4β2 nicotinic subtype (P43681 29-627 limits assumed): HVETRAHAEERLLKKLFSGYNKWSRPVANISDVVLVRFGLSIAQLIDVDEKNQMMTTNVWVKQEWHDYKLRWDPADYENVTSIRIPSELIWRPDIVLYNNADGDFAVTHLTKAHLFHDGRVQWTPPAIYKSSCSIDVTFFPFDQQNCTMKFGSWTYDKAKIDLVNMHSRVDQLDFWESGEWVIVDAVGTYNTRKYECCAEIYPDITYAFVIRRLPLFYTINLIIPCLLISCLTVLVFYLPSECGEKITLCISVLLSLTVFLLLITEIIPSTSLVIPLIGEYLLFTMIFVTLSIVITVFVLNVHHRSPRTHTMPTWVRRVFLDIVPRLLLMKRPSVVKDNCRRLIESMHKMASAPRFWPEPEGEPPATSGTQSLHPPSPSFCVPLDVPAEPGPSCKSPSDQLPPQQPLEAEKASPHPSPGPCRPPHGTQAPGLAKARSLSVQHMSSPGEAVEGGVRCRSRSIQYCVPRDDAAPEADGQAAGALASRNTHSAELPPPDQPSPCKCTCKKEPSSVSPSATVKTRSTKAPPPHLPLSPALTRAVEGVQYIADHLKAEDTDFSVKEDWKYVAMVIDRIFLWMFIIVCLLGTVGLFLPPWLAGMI
Chain of α4β2 nicotinic subtype (P17787 26-502): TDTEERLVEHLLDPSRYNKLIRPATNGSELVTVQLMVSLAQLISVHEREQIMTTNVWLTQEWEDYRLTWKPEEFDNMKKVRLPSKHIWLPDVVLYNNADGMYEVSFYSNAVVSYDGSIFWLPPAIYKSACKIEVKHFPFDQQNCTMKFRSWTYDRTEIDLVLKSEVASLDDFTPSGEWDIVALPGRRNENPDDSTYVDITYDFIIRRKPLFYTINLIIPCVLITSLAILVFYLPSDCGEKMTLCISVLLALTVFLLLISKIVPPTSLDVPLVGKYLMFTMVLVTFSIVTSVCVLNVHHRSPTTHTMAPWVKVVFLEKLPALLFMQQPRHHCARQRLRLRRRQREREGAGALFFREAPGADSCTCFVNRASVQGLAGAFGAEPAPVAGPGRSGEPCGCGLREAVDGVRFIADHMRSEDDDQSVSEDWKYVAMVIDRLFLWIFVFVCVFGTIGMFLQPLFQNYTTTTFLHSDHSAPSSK

`C(=C\[C@H]1CCNC1)/c1cncnc1` [(R)-5-((E)-2-pyrrolidin-3-ylvinyl)pyrimidine]: the stability entry in data set [1] is listed as “limited”. In addition, the NNR agonist selectivity entry at α4β2 nicotinic subtype is recorded as “selectivity for the α4β2 nicotinic subtype over other nicotinic subtypes”. The water solubility entry in data set [2] is given as “limited”.

Values taken from US10919879B2, “Synthesis and novel salt forms of (R)-5-((E)-2-pyrrolidin-3-ylvinyl)pyrimidine” (Oyster Point Pharma, Inc., priority 2008, dated 2021).
